Measured values reported in patent publication US20020169153A1, “Substituted aromatic compounds for treatment of antibiotic resistant infections” (priority 1998, published 2002).

System: Staphylococcus aureus methicillin-resistant wild type T67738
Experiment: Susceptibility test, microtiter broth dilution (MIC), resistant S. aureus
Type: cell-based
Conditions: in culture
Procedure: The strains were streaked on blood agar plates (trypticase soy broth containing 5% sheep cells). A single colony was isolated and grown in Mueller-Hinton Broth (MHB) as recommended by the national Committee for Clinical Laboratory Standards for rapidly growing bacteria. Candida species and related yeasts were isolated in a similar manner on brain-heart infusion agar (BHI).
The antibiotic susceptibility profile of each strain was determined using standard microtiter dilution plates obtained from the Clinical Microbiology Laboratory at Ohio State University Hospitals. The Inocula were prepared by suspending a 4 hour log phase growth in MHB visually equal in turbidity of an 0.5 McFarland standard. Inocula were further diluted and added to microdilution trays to achieve a final density of approximately 1×10^5 CFU/ml. The trays were incubated for 16 to 20 hours at 35° C. The highest dilution at which wells remained clear was considered to be the minimum inhibitory concentration (MIC).
The MIC and minimum bacterial concentration (MBC) of the strains to the active agents were determined by two-fold dilutions in Mueller-Hinton broth. […]

## OC(c1c2cccc(Cl)c2cc2c(Cl)cccc12)C1CCCCN1 (stereo not drawn) [WR 218394, α-(2-PIPERIDYL)-4,5-DICHLORO-9-ANTHRACENEMETHANOL]
  Effective Concentration S. Aureous (Resist).: 3.1 µg/mL
